Results as given in ChEMBL document CHEMBL2046320, “Bisubstrate analog inhibitors of 6-hydroxymethyl-7,8-dihydropterin pyrophosphokinase: new lead exhibits a distinct binding mode” (Bioorg Med Chem, 2012).

Columns and labels:
[1] = target: T1, 2-amino-4-hydroxy-6-hydroxymethyldihydropteridine pyrophosphokinase (Escherichia coli (strain K12), UniProt P26281); experiment: Binding affinity to Escherichia coli HPPK at pH 8.3 by fluorometric titration
T1 sequence (P26281 whole entry): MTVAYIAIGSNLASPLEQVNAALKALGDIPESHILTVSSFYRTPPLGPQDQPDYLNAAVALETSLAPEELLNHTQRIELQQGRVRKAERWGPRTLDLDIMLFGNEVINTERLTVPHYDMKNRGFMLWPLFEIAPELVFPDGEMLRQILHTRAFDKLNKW

[2] = target: T1, 2-amino-4-hydroxy-6-hydroxymethyldihydropteridine pyrophosphokinase; experiment: Inhibition of Escherichia coli HPPK using [alpha-33P]ATP after 30 mins

Question: With `CC1(C)Nc2nc(N)[nH]c(=O)c2N=C1C(=O)NCC(=O)NCCS(=O)(=O)C[C@H]1O[C@@H](n2cnc3c(N)ncnc32)[C@H](O)[C@@H]1O` as the molecule, how does the Kd [1] read?
Answer: 4.16 µM

Question: And the IC50 [2]?
Answer: 9.53 µM
